The values that follow come from patent US9487470B2, “4-((substituted phenyl) difluoromethyl) phenoxy carboxylic acid derivative, and preparation method and uses thereof” (Zhejiang Hisun Pharmaceutical Co., Ltd., priority 2012, dated 2016).

In the test the test system is hyperlipoidemia model of Goldenhamsters (blood plasma TC, TG, HDL-C, LDL-C). The experiment in a line: Pharmacological test group 1: effects on blood lipid levels of Goldenhamsters in a hyperlipoidemia model. The format is in vivo. The following applies: for HDL-C, after administration / LDL-C, after administration / TC, after administration / TG, after administration: 40 mg/kg intragastric, 1 week, high-lipid feed continued, blood plasma, x±s, asterisks = P vs before administration. The text has this: Animals: 134 male Goldenhamsters, aged 8 weeks, body weight 80-100 g, provided by Vital River Laboratories, Beijing. […] Kits: The kits for total cholesterol (TC), triglyceride (TG), and high density lipoprotein cholesterol (HDL-C) were provided by SYSMEX, and the kits for low density lipoprotein cholesterol (LDL-C) were provided by Shanghai Kehua Bio-engineering Co., Ltd. Apparatus: SYSMEX Automatic Biochemistry Analyzer, Bechman centrifuge, Setoris balance. The animals were acclimatized and fed for 1 week, ad lib, light cycle was 10 h/14 h, and then feeds with high lipid content were fed to the animals (formulation: 0.3% cholesterol, 20% palm oil, and 79.7% basic feeds). The animals were fed for 10 days, and were fasted at 4:00 pm on the 10th day (fasted for 16 h). On the 11th day, the animals were anaesthetized with ethyl ether, weighted, and then 0.5 ml blood was collected from vena orbitalis posterior. The blood was anticoagulated with heparin, and was centrifugated at 5000 rpm for 10 min. The blood plasma was taken, and the levels of TC, TG, HDL-C, and LDL-C in blood plasma were determined using automatic biochemistry analyzer. The animals were acclimatized and fed for 1 week, ad lib, light cycle was 10 h/14 h, and then feeds with high lipid content were fed to the animals (formulation: 0.3% cholesterol, 20% palm oil, and 79.7% basic feeds). The animals were fed for 2 weeks, and were fasted at 4:00 pm on the […] (fasted for 16 h). On the 22nd day, the animals were anaesthetized with ethyl ether, weighted, and then 0.5 ml blood was collected from vena orbitalis posterior. The blood was anticoagulated with heparin, and was centrifugated at 5000 rpm for 10 min. The blood plasma was taken, and the levels of TC, TG, HDL-C, and LDL-C in blood plasma were determined using automatic biochemistry analyzer. […] During the administration, feeds with high lipid content were continuously fed to the animals. The animals were fed for 1 week, and were fasted at 4:00 pm on the 7th day. On the 8th day, the animals were anaesthetized with ethyl ether, weighted, and then 0.5 ml blood was collected from vena orbitalis posterior. The blood was anticoagulated with heparin, and was centrifugated at 5000 rpm for 10 min. The blood plasma was taken, and the levels of TC, TG, HDL-C, and LDL-C in blood plasma were determined using automatic biochemistry analyzer. The results were represented by x±s, and t test was employed for comparing the results obtained before and after administration.

[1] abbreviates: 40 mg/kg, t test after vs before administration.

On to `CC(C)OC(=O)C(C)(C)Oc1ccc(C(F)(F)c2ccc(F)cc2)cc1` [HS003-006, Isopropyl 2-(4-((4-fluorophenyl)difluoromethyl)phenoxy)-2-methylpropionate], for which the “HDL-C, after administration” value stood at 3.64 ± 0.31; the “LDL-C, after administration” value came to 1.02 ± 0.27; the “TC, after administration” value was found to be 8.96 ± 0.77; the “TG, after administration” value is 1.06 ± 0.29. Besides, the “regulating effects on the levels of blood lipid (conclusion from table 2)” value (from here on “regulating effects on the levels”) (40 mg/kg) was “tend to the effects of significantly decreasing TG, TC, and LDL-C”. In addition, under setting [1], the “effect on HDL-C, in comparison with the results before administration (in words)” value is “increases”; the “effect on TC, in comparison with the results before administration (in words)” value (shortened to “effect on TC, in comparison”) was “significantly decreases”; the “effect on TG, in comparison with the results before administration (in words)” value is on record as “significantly decreases”.

For `CC(C)OC(=O)C(C)(C)Oc1ccc(C(F)(F)c2ccc(C(F)(F)F)cc2)cc1` [HS003-007, Isopropyl 2-(4-((4-trifluoromethylphenyl)difluoromethyl)phenoxy)-2-methylpropionate], the “HDL-C, after administration” value was determined as 2.99 ± 0.13; the “LDL-C, after administration” value came out at 1.26 ± 0.22; the “TC, after administration” value is given as 7.42 ± 0.71; the “TG, after administration” value is 2.12 ± 0.43. Also, where the note is “40 mg/kg”, the “regulating effects on the levels” value was “tend to the effects of significantly decreasing TG, TC, and LDL-C”. The “effect on TC, in comparison” value under setting [1] is given as “significantly decreases”.

With `CC(C)OC(=O)C(C)(C)Oc1ccc(C(F)(F)c2cccc(C(F)(F)F)c2)cc1` [HS003-013, Isopropyl 2-(4-((3-trifluoromethylphenyl)difluoromethyl)phenoxy)-2-methylpropionate], the “HDL-C, after administration” value amounted to 3.12 ± 0.25; the “LDL-C, after administration” value amounted to 1.46 ± 0.46; the “TC, after administration” value came out at 8.93 ± 0.53; the “TG, after administration” value was determined as 1.84 ± 0.45. For the same molecule, the “regulating effects on the levels” value (40 mg/kg) was “tend to the effects of significantly decreasing TG, TC, and LDL-C”. Moreover, under setting [1], the “effect on TC, in comparison” value is on record as “significantly decreases”.

For `CC(C)OC(=O)C(C)(C)Oc1ccc(C(F)(F)c2ccccc2C(F)(F)F)cc1` [HS003-016, Isopropyl 2-(4-((2-trifluoromethylphenyl)difluoromethyl)phenoxy)-2-methylpropionate], the “HDL-C, after administration” value was 3.40 ± 0.32; the “LDL-C, after administration” value worked out at 1.0 ± 0.23; the “TC, after administration” value is listed as 8.44 ± 1.12; the “TG, after administration” value is 1.23 ± 0.42. The “regulating effects on the levels” value (40 mg/kg) was “tend to the effects of significantly decreasing TG, TC, and LDL-C”. Besides, the “effect on TC, in comparison” value under setting [1] is “significantly decreases”.

In the case of `COC(=O)c1ccc(C(F)(F)c2ccc(OC(C)(C)C(=O)OC(C)C)cc2)cc1` [HS003-017, Isopropyl 2-(4-((4-methoxyacylphenyl)difluoromethyl)phenoxy)-2-methylpropionate], the “HDL-C, after administration” value is listed as 4.09 ± 0.18; the “LDL-C, after administration” value was determined as 1.41 ± 0.34; the “TC, after administration” value was found to be 11.61 ± 1.42; the “TG, after administration” value is on record as 0.81 ± 0.15. In addition, under “40 mg/kg”, the “regulating effects on the levels” value is “tend to the effect of significantly decreasing TG and increasing HDL-C”. The “therapeutic effect compared with fenofibrate (conclusion from table 2)” value (40 mg/kg, fenofibrate 40 mg/kg) was “outstanding therapeutic effects on decreasing TG, and are significantly superior to fenofibrate”. For the same molecule, the “effect on TG, in comparison with the results before administration (in words)” value under setting [1] is reported as “significantly decreases”.
